According to PubChem BioAssay (NCI):
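Tested at 5 concentrations; 48 h exposure; 96-well plates; endpoints linearly interpolated, else capped at highest concentration. Here, GI50 denotes the concentration required for 50% inhibition of growth. TGI marks complete inhibition of growth.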

Columns and labels:
Experiment in all cases: NCI-60 cell line screen, 48 h
CCRF-CEM leukemia = system: CCRF-CEM leukemia
SNB-75 CNS = system: SNB-75 CNS
SK-OV-3 ovarian = system: SK-OV-3 ovarian
A549 NSCLC = system: A549 NSCLC
SF-295 CNS = system: SF-295 CNS
SK-MEL-28 melanoma = system: SK-MEL-28 melanoma
NCI-H522 lung = system: NCI-H522 lung
TK-10 renal = system: TK-10 renal
HOP-62 NSCLC = system: HOP-62 NSCLC
OVCAR-4 ovarian = system: OVCAR-4 ovarian
RPMI-8226 leukemia = system: RPMI-8226 leukemia
OVCAR-8 ovarian = system: OVCAR-8 ovarian
M14 melanoma = system: M14 melanoma
HCT-116 colon = system: HCT-116 colon
HT29 colon = system: HT29 colon
SW-620 colon = system: SW-620 colon
OVCAR-5 ovarian = system: OVCAR-5 ovarian
EKVX NSCLC = system: EKVX NSCLC
HCC-2998 colon = system: HCC-2998 colon
OVCAR-3 ovarian = system: OVCAR-3 ovarian
SF-539 CNS = system: SF-539 CNS
SK-MEL-2 melanoma = system: SK-MEL-2 melanoma
DU-145 prostate = system: DU-145 prostate
MDA-MB-231 breast = system: MDA-MB-231 breast
SK-MEL-5 melanoma = system: SK-MEL-5 melanoma
RXF 393 renal = system: RXF 393 renal
KM12 colon = system: KM12 colon
UO-31 renal = system: UO-31 renal
UACC-62 melanoma = system: UACC-62 melanoma
T-47D breast = system: T-47D breast
SNB-19 CNS = system: SNB-19 CNS
IGROV1 ovarian = system: IGROV1 ovarian
CAKI-1 renal = system: CAKI-1 renal
HS 578T breast = system: HS 578T breast
MCF7 breast = system: MCF7 breast
BT-549 breast = system: BT-549 breast
LOX IMVI melanoma = system: LOX IMVI melanoma
NCI-H226 lung = system: NCI-H226 lung
HOP-92 NSCLC = system: HOP-92 NSCLC
ACHN renal = system: ACHN renal
UACC-257 melanoma = system: UACC-257 melanoma
U251 CNS = system: U251 CNS
786-0 renal = system: 786-0 renal
NCI/ADR-RES ovarian = system: NCI/ADR-RES ovarian
MDA-MB-435 = system: MDA-MB-435
MOLT-4 leukemia = system: MOLT-4 leukemia
SF-268 CNS = system: SF-268 CNS
SN12C renal = system: SN12C renal
PC-3 prostate = system: PC-3 prostate
NCI-H460 lung = system: NCI-H460 lung
K-562 leukemia = system: K-562 leukemia
COLO 205 colon = system: COLO 205 colon
NCI-H23 lung = system: NCI-H23 lung
HCT-15 colon = system: HCT-15 colon

## O=C1CCS/C(=N\S(=O)(=O)c2ccc(N3N=C4c5ccccc5CC4C3c3cccs3)cc2)N1C(=O)c1ccccc1 (stereo not drawn)
CCRF-CEM leukemia
  GI50: 15 µM
  TGI: 42.7 µM
SNB-75 CNS
  GI50: > 100 µM
  TGI: > 100 µM
SK-OV-3 ovarian
  GI50: 52.8 µM
  TGI: > 100 µM
A549 NSCLC
  GI50: 10.6 µM
  TGI: 24.3 µM
SF-295 CNS
  GI50: 32.7 µM
  TGI: > 100 µM
SK-MEL-28 melanoma
  GI50: 50.2 µM
  TGI: > 100 µM
NCI-H522 lung
  GI50: 14.4 µM
  TGI: 65.1 µM
TK-10 renal
  GI50: 24.5 µM
  TGI: 54.7 µM
HOP-62 NSCLC
  GI50: 31.1 µM
  TGI: > 100 µM
OVCAR-4 ovarian
  GI50: > 100 µM
  TGI: > 100 µM
RPMI-8226 leukemia
  GI50: 5.86 µM
  TGI: > 100 µM
OVCAR-8 ovarian
  GI50: 0.816 µM
  TGI: 17.5 µM
M14 melanoma
  GI50: 10.8 µM
  TGI: 27.2 µM
HCT-116 colon
  GI50: 10 µM
  TGI: 21.6 µM
HT29 colon
  GI50: 39.6 µM
  TGI: > 100 µM
SW-620 colon
  GI50: 13.1 µM
  TGI: > 100 µM
OVCAR-5 ovarian
  GI50: 25.8 µM
  TGI: 54.3 µM
EKVX NSCLC
  GI50: 22.1 µM
  TGI: > 100 µM
HCC-2998 colon
  GI50: 18.2 µM
  TGI: 32.1 µM
OVCAR-3 ovarian
  GI50: 27.4 µM
  TGI: 67.1 µM
SF-539 CNS
  GI50: 2.38 µM
  TGI: > 100 µM
SK-MEL-2 melanoma
  GI50: 29.4 µM
  TGI: > 100 µM
DU-145 prostate
  GI50: 23.2 µM
  TGI: > 100 µM
MDA-MB-231 breast
  GI50: 5.77 µM
  TGI: 26.8 µM
SK-MEL-5 melanoma
  GI50: 2.56 µM
  TGI: 6.07 µM
RXF 393 renal
  GI50: 6.31 µM
  TGI: 33 µM
KM12 colon
  GI50: 29.4 µM
  TGI: 83.1 µM
UO-31 renal
  GI50: 30.7 µM
  TGI: > 100 µM
UACC-62 melanoma
  GI50: 6.37 µM
  TGI: 28 µM
T-47D breast
  GI50: > 100 µM
  TGI: > 100 µM
SNB-19 CNS
  GI50: 45.7 µM
  TGI: > 100 µM
IGROV1 ovarian
  GI50: 14.5 µM
  TGI: 29.9 µM
CAKI-1 renal
  GI50: 26.8 µM
  TGI: 86.6 µM
HS 578T breast
  GI50: 2.85 µM
  TGI: 34.2 µM
MCF7 breast
  GI50: 9.1 µM
  TGI: > 100 µM
BT-549 breast
  GI50: 4.77 µM
  TGI: > 100 µM
LOX IMVI melanoma
  GI50: 7.61 µM
  TGI: 23.8 µM
NCI-H226 lung
  GI50: 15.9 µM
  TGI: 41 µM
HOP-92 NSCLC
  GI50: 25.4 µM
  TGI: > 100 µM
ACHN renal
  GI50: 5.18 µM
  TGI: 18.5 µM
UACC-257 melanoma
  GI50: 0.334 µM
  TGI: 20.6 µM
U251 CNS
  GI50: 4.5 µM
  TGI: 17.4 µM
786-0 renal
  GI50: 14.1 µM
  TGI: 27.2 µM
NCI/ADR-RES ovarian
  GI50: 32.9 µM
  TGI: > 100 µM
MDA-MB-435
  GI50: 22.7 µM
  TGI: 53.4 µM
MOLT-4 leukemia
  GI50: 5.04 µM
  TGI: 77.9 µM
SF-268 CNS
  GI50: 13.7 µM
  TGI: > 100 µM
SN12C renal
  GI50: 16.7 µM
  TGI: 57.1 µM
PC-3 prostate
  GI50: 29.2 µM
  TGI: > 100 µM
NCI-H460 lung
  GI50: 26.6 µM
  TGI: > 100 µM
K-562 leukemia
  GI50: 26.4 µM
  TGI: > 100 µM
COLO 205 colon
  GI50: 66.5 µM
  TGI: > 100 µM
NCI-H23 lung
  GI50: 17.2 µM
  TGI: 41.5 µM
HCT-15 colon
  GI50: 15.1 µM
  TGI: 31.3 µM
